Reference: US10508120B2, “TYK2 inhibitors and uses thereof” (Nimbus Lakshmi, Inc., priority 2017, dated 2019)
Like-named read-outs stand apart in the source and are kept apart here.

Key:
[1] = target: Tyk2 kinase domain (DH1) (Homo sapiens (Human), UniProt P29597); assay: Tyk2 Radioactive Kinase Assay; type: biochemical; conditions: for inhibition at 10 µM: read-out: Tyk2 JH1% Inhibition @ 10 μM
Summary of the method: (§1)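 Read-out is percent inhibition from a radioactive kinase reaction, measured with compound at 10 μM.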

[2] = target: human TYK2 (JH2domain-pseudokinase) (Homo sapiens (Human), UniProt P29597); assay: TYK2 JH2 Domain Binding Assay (KINOMEscan)
Summary of the method: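 The construct was human TYK2 G556–D888 fused to the NFkB DNA-binding domain and expressed in HEK293 cells; unpurified extract was incubated with compound and liganded beads for 1 hour at room temperature.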

[3] = target: JAK2 kinase domain (JH1) (Homo sapiens (Human), UniProt O60674); assay: JAK2 Radioactive Kinase Assay; type: biochemical; conditions: for inhibition at 10 µM: read-out: JAK2 JH1% Inhibition @ 10 μM
Summary of the method: as §1

Sequence of Tyk2 kinase domain (DH1) (P29597 897-1176): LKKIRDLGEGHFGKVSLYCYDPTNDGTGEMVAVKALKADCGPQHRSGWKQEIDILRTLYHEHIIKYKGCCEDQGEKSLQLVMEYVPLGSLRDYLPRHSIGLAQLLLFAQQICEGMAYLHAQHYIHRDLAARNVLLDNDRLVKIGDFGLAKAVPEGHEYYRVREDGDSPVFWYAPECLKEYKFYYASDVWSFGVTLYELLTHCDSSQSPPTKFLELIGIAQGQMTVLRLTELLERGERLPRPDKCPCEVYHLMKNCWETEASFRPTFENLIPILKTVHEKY
Sequence of JAK2 kinase domain (JH1) (O60674 849-1124): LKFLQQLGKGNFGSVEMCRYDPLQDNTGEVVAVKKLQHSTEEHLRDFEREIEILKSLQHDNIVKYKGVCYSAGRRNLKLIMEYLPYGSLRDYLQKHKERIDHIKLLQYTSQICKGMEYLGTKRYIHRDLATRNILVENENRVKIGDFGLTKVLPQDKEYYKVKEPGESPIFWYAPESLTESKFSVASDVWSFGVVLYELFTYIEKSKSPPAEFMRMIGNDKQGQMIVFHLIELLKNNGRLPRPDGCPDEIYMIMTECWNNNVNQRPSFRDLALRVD
Sequence of human TYK2 (JH2domain-pseudokinase) (P29597 556-888): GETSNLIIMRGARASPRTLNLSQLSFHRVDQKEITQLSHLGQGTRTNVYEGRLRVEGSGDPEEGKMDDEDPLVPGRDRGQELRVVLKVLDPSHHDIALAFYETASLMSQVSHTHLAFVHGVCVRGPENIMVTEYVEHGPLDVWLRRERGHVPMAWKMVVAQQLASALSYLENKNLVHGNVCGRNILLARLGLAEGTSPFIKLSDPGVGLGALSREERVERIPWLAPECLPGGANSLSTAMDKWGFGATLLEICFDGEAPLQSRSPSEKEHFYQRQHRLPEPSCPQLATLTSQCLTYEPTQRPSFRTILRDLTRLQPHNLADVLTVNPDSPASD

Row | SMILES | inhibition at 10 µM ([1]; 10 μM compound, 10 μM ATP) [%] | Kd [2] [nM] | inhibition at 10 µM ([3]; 10 μM compound, 10 μM ATP) [%] | inhibition at 10 µM ([1]; compound at 10 μM, ATP 10 μM) [%] | inhibition at 10 µM ([3]; compound at 10 μM, ATP 10 μM) [%] | Tyk2 JH1% Inhibition @ 10 μM ([1]; compound at 10 μM, ATP 10 μM) | JAK2 JH1% Inhibition @ 10 μM ([3]; compound at 10 μM, ATP 10 μM)
1 | CNc1cc(Nc2cccn([C@H]3C[C@@H]3F)c2=O)nc2c(C(=O)NCC3(CO)CC3)cnn12 (stereo in doubt) [I-1061, 5-((1-(2-fluorocyclopropyl)-2-oxo-1,2-dihydropyridin-3-yl)amino)-N-((1-(hydroxymethyl)cyclopropyl)methyl)-7-(methylamino)pyrazolo[1,5-a]pyrimidine-3-carboxamide] | < 50 | < 0.2 | < 50 | – | – | – | –
2 | CNc1cc(Nc2cccn(CCOC3CC3)c2=O)nc2c(C(=O)N[C@@H]3CC[C@H]3O)cnn12 [I-472, 5-((1-(2-cyclopropoyethyl)-2-oxo-1,2-dihydropyridin-3-yl)amino)-N-(2-hydroxycyclobutyl)-7-(methylamino)pyrazolo[1,5-a]pyrimidine-3-carboxamide] | – | 0.2 to 1 | – | < 50 | < 50 | – | –
3 | CNc1cc(-c2cn(C(C)C)c3ncc(C)cc23)nc2c(C(=O)NC3CCC3)cnn12 [I-256] | – | 0.2 to 1 | – | < 50 | < 50 | – | –
4 | CNc1cc(Nc2cccc(N3CCC4(CCCO4)CC3)n2)nc2c(C(=O)NC3CC3)cnn12 [I-655] | – | 0.2 to 1 | – | < 50 | < 50 | – | –
5 | CNc1cc(Nc2cccn(-c3cnn(C)c3)c2=O)nc2c(C(=O)NCC(C)CO)cnn12 (stereo not drawn) [I-633] | – | < 0.2 | – | < 50 | < 50 | – | –
6 | Cc1nccc(-n2cccc(Nc3cc(N)n4ncc(C(N)=O)c4n3)c2=O)n1 [I-42] | – | 1 to 10 | – | < 50 | < 50 | – | –
7 | Cc1cc(Nc2cc(N)n3ncc(C(N)=O)c3n2)c(=O)n(-c2cnn(C)c2)c1 [I-32] | – | 0.2 to 1 | – | < 50 | < 50 | – | –
8 | CNc1cc(Nc2cc(F)cn([C@H]3CCCOC3)c2=O)nc2c(C(=O)NC3CC3)cnn12 [I-534] | – | 0.2 to 1 | – | < 50 | < 50 | – | –
9 | CNc1cc(Nc2cccnc2O[C@H]2CC[C@H](O)CC2)nc2c(C(=O)NC3CC3)cnn12 [I-231] | – | 0.2 to 1 | – | < 50 | < 50 | – | –
10 | CNc1cc(Nc2cccc([C@H]3CCCCO3)n2)nc2c(C(=O)N[C@@H]3CC[C@@H]3O)cnn12 [I-648] | – | 0.2 to 1 | – | – | – | A (percent inhibition at 10 μM lower than 50) | A (percent inhibition at 10 μM lower than 50)
11 | CNc1cc(Nc2cccn(-c3cnn(C)c3)c2=O)nc2c(C(=O)NC[C@@H](C)CO)cnn12 [I-669] | – | < 0.2 | – | < 50 | < 50 | – | –
12 | Nc1cc(Nc2cccc(N3CCCC3=O)n2)nc2c(C(=O)NC3COC3)cnn12 [I-101, 7-amino-N-(oxetan-3-yl)-5-((6-(2-oxopyrrolidin-1-yl)pyridin-2-yl)amino)pyrazolo[1,5-a]pyrimidine-3-carboxamide] | – | > 10 | – | < 50 | < 50 | – | –
13 | CNc1cc(-c2nn(C3CCOCC3)c3ncccc23)nc2c(C(=O)NC3CC3)cnn12 [I-441] | – | 0.2 to 1 | – | < 50 | < 50 | – | –
14 | CNc1cc(Nc2c(F)ccn(-c3nccs3)c2=O)nc2c(C(=O)NC3CC3)cnn12 [I-581] | – | 1 to 10 | – | < 50 | < 50 | – | –
15 | CNc1cc(Nc2cccnc2OC2CC2)nc2c(C(=O)N[C@@H]3CCC[C@H]3O)cnn12 [I-465, 5-((2-cyclopropoxypyridin-3-yl)amino)-N-((1R,2R)-2-hydroxycyclopentyl)-7-(methylamino)pyrazolo[1,5-a]pyrimidine-3-carboxamide] | – | 0.2 to 1 | – | – | – | A (percent inhibition at 10 μM lower than 50) | A (percent inhibition at 10 μM lower than 50)
16 | CNc1cc(-c2cn(CCN3CCCCC3)c3ncccc23)nc2c(C(N)=O)cnn12 [I-797] | – | < 0.2 | – | < 50 | < 50 | – | –
17 | CNc1cc(Nc2cccc([C@H]3CCCOC3)n2)nc2c(C(=O)N[C@@H]3CC[C@@H]3O)cnn12 [I-641] | – | 0.2 to 1 | – | – | – | A (percent inhibition at 10 μM lower than 50) | A (percent inhibition at 10 μM lower than 50)
18 | CNc1cc(Nc2cccn(C(C)C)c2=O)nc2c(C(=O)NC3CC3)cnn12 [I-394] | – | 0.2 to 1 | – | < 50 | < 50 | – | –
19 | CNc1cc(Nc2cc(Cl)cn([C@H]3CCCOC3)c2=O)nc2c(C(=O)N[C@H]3[C@@H]4COC[C@@H]43)cnn12 [I-800] | – | 0.2 to 1 | – | < 50 | < 50 | – | –
20 | NC(=O)c1cnn2c(N)cc(Nc3cccc(N4CCCC4=O)n3)nc12 [I-58] | – | < 0.2 | – | < 50 | 50 to 70 | – | –

Second part, led by results:

Row | inhibition at 10 µM ([1]; 10 μM compound, 10 μM ATP) [%] | Kd [2] [nM] | inhibition at 10 µM ([3]; 10 μM compound, 10 μM ATP) [%] | inhibition at 10 µM ([1]; compound at 10 μM, ATP 10 μM) [%] | inhibition at 10 µM ([3]; compound at 10 μM, ATP 10 μM) [%] | SMILES | Tyk2 JH1% Inhibition @ 10 μM ([1]; compound at 10 μM, ATP 10 μM) | JAK2 JH1% Inhibition @ 10 μM ([3]; compound at 10 μM, ATP 10 μM)
21 | – | 0.2 to 1 | – | – | – | CNc1cc(Nc2cccn([C@H]3CCC[C@@H]3OC)c2=O)nc2c(C(=O)NC3CC3)cnn12 [I-436] | A (percent inhibition at 10 μM lower than 50) | A (percent inhibition at 10 μM lower than 50)
22 | – | 0.2 to 1 | – | < 50 | < 50 | CNc1cc(Nc2cccn([C@H]3CCCN(C)C3)c2=O)nc2c(C(=O)NC3CC3)cnn12 [I-511] | – | –
23 | – | < 0.2 | – | < 50 | < 50 | CNc1cc(Nc2cccn([C@@H]3CCCOC3)c2=O)nc2c(C(=O)N[C@H]3CCC[C@H](O)C3)cnn12 [I-703] | – | –
24 | – | 0.2 to 1 | – | < 50 | < 50 | CNc1cc(Nc2cccn(C3=NC(C)(C)CS3)c2=O)nc2c(C(=O)N[C@@H]3C[C@@H]3F)cnn12 [I-526] | – | –
25 | – | < 0.2 | – | < 50 | < 50 | CNc1cc(Nc2cccn(C3CCN(CCF)CC3)c2=O)nc2c(C(=O)NC3CC3)cnn12 [I-569, N-cyclopropyl-5-((1-(1-(2-fluoroethyl)piperidin-4-yl)-2-oxo-1,2-dihydropyridin-3-yl)amino)-7-(methylamino)pyrazolo[1,5-a]pyrimidine-3-carboxamide] | – | –
26 | – | < 0.2 | – | < 50 | < 50 | CNc1cc(Nc2cccn(-c3ccc(C(=O)N4CCCC4)cn3)c2=O)nc2c(C(=O)N[C@H]3C[C@H]3F)cnn12 [I-128] | – | –
27 | – | < 0.2 | – | < 50 | < 50 | CNc1cc(Nc2cccn([C@H]3CCCOC3)c2=O)nc2c(C(=O)N[C@@H]3C[C@@H]3F)cnn12 [I-475] | – | –
28 | – | 0.2 to 1 | – | < 50 | < 50 | CNc1cc(Nc2cccn([C@H]3CCC[C@@H]3OC)c2=O)nc2c(C(=O)N[C@@H]3C[C@@H]3F)cnn12 [I-442] | – | –
29 | < 50 | 0.2 to 1 | < 50 | – | – | CNc1cc(Nc2cccn(-c3oc(C)nc3C)c2=O)nc2c(C(=O)N[C@@H]3C[C@@H]3F)cnn12 [I-938] | – | –
30 | – | 0.2 to 1 | – | < 50 | < 50 | CNc1cc(Nc2cccn([C@@H]3CCCOC3)c2=O)nc2c(C(=O)N[C@@H]3CC[C@@H]3O)cnn12 [I-752] | – | –
31 | – | < 0.2 | – | < 50 | < 50 | CNc1cc(Nc2cccn([C@@H]3CCCOC3)c2=O)nc2c(C(=O)NC3CCC3)cnn12 [I-353] | – | –
32 | – | < 0.2 | – | < 50 | < 50 | CNc1cc(Nc2cccn(-c3cnc(C(C)(C)O)cn3)c2=O)nc2c(C(N)=O)cnn12 [I-63] | – | –
